The source made the active and inactive calls. The rule behind the calls is not given here.
Tests used:
Staphylococcus aureus [1] = experiment: Antibacterial activity against Staphylococcus aureus assessed as bacterial growth inhibition preincubated with compound for 15 mins followed by light irradiated with 730 nm, 40 J/cm2 and measured after 24 hrs by broth microdilution method; type: functional; details: light or radiation study, 24.25 h, time 1455 min
[2] = Photophysical property of the compound assessed as singlet oxygen quantum yield by UV-vis spectrophotometric analysis; type: physicochemical
[3] = Induction of singlet oxygen quantum yield under 418 nm light irradiation by DPBF based assay; type: functional
Candida albicans [4] = experiment: Antifungal activity against Candida albicans assessed as fungal growth inhibition preincubated with compound for 15 mins followed by light irradiated with 730 nm, 40 J/cm2 and measured after 24 hrs by broth microdilution method; type: functional; details: light or radiation study, 24.25 h, time 1455 min
Escherichia coli [5] = experiment: Antibacterial activity against Escherichia coli assessed as bacterial growth inhibition measured after 24 hrs by broth microdilution method; type: functional
Candida albicans [6] = experiment: Antifungal activity against Candida albicans assessed as fungal growth inhibition measured after 24 hrs by broth microdilution method; type: functional
Staphylococcus aureus [7] = experiment: Antibacterial activity against Staphylococcus aureus assessed as bacterial growth inhibition measured after 24 hrs by broth microdilution method; type: functional
Escherichia coli [8] = experiment: Antibacterial activity against Escherichia coli assessed as bacterial growth inhibition preincubated with compound for 15 mins followed by light irradiated with 730 nm, 40 J/cm2 and measured after 24 hrs by broth microdilution method; type: functional; details: light or radiation study, 24.25 h, time 1455 min
[9] = Photophysical property of the compound assessed as fluorescence quantum yield by UV-vis spectrophotometric analysis; type: physicochemical

Row | SMILES | MIC (Staphylococcus aureus [1]) [µM] | Activity [2] | Activity [3] | MIC (Candida albicans [4]) [µM] | MIC (Escherichia coli [5]) [µM] | MIC (Candida albicans [6]) [µM] | MIC (Staphylococcus aureus [7]) [µM] | MIC (Escherichia coli [8]) [µM] | Activity [9]
1 | C[N+](C)(C)CCCCCCOc1ccc(-c2c3nc(c(-c4ccc(OCCCCCC[N+](C)(C)C)cc4)c4[nH]c(c(-c5ccc(OCCCCCC[N+](C)(C)C)cc5)c5nc(c(-c6ccc(OCCCCCC[N+](C)(C)C)cc6)c6[nH]c2c2cc7ccccc7cc62)-c2cc6ccccc6cc2-5)c2cc5ccccc5cc42)-c2cc4ccccc4cc2-3)cc1.[Br-].[Br-].[Br-].[Br-] | 16 | 0.48 | Active | 64 | > 64 | 64 | 64 | > 64 | 0.07
2 | C[N+](C)(C)CCCCOc1ccc(-c2c3nc(c(-c4ccc(OCCCC[N+](C)(C)C)cc4)c4[nH]c(c(-c5ccc(OCCCC[N+](C)(C)C)cc5)c5nc(c(-c6ccc(OCCCC[N+](C)(C)C)cc6)c6[nH]c2c2cc7ccccc7cc62)-c2cc6ccccc6cc2-5)c2cc5ccccc5cc42)-c2cc4ccccc4cc2-3)cc1.[Br-].[Br-].[Br-].[Br-] | 16 | 0.41 | Active | 64 | > 64 | 64 | 32 | > 64 | 0.08
3 | CC[N+](C)(CC)CCCCCOc1ccc(-c2c3nc(c(-c4ccc(OCCCCC[N+](C)(CC)CC)cc4)c4[nH]c(c(-c5ccc(OCCCCC[N+](C)(CC)CC)cc5)c5nc(c(-c6ccc(OCCCCC[N+](C)(CC)CC)cc6)c6[nH]c2c2cc7ccccc7cc62)-c2cc6ccccc6cc2-5)c2cc5ccccc5cc42)-c2cc4ccccc4cc2-3)cc1.[Br-].[Br-].[Br-].[Br-] | 16 | 0.67 | Active | 64 | > 64 | 64 | 32 | > 64 | 0.07
4 | [Br-].[Br-].[Br-].[Br-].c1cc[n+](CCCCOc2ccc(-c3c4nc(c(-c5ccc(OCCCC[n+]6ccccc6)cc5)c5[nH]c(c(-c6ccc(OCCCC[n+]7ccccc7)cc6)c6nc(c(-c7ccc(OCCCC[n+]8ccccc8)cc7)c7[nH]c3c3cc8ccccc8cc73)-c3cc7ccccc7cc3-6)c3cc6ccccc6cc53)-c3cc5ccccc5cc3-4)cc2)cc1 | 32 | 0.45 | Active | 32 | > 64 | 64 | 64 | > 64 | 0.08
5 | [Br-].[Br-].[Br-].[Br-].c1cc[n+](CCCCCCOc2ccc(-c3c4nc(c(-c5ccc(OCCCCCC[n+]6ccccc6)cc5)c5[nH]c(c(-c6ccc(OCCCCCC[n+]7ccccc7)cc6)c6nc(c(-c7ccc(OCCCCCC[n+]8ccccc8)cc7)c7[nH]c3c3cc8ccccc8cc73)-c3cc7ccccc7cc3-6)c3cc6ccccc6cc53)-c3cc5ccccc5cc3-4)cc2)cc1 | 64 | 0.52 | Active | 64 | > 64 | 64 | 64 | > 64 | 0.07
6 | CC[N+](C)(CC)CCCCOc1ccc(-c2c3nc(c(-c4ccc(OCCCC[N+](C)(CC)CC)cc4)c4[nH]c(c(-c5ccc(OCCCC[N+](C)(CC)CC)cc5)c5nc(c(-c6ccc(OCCCC[N+](C)(CC)CC)cc6)c6[nH]c2c2cc7ccccc7cc62)-c2cc6ccccc6cc2-5)c2cc5ccccc5cc42)-c2cc4ccccc4cc2-3)cc1.[Br-].[Br-].[Br-].[Br-] | 8 | 0.56 | Active | 64 | > 64 | 64 | 16 | > 64 | 0.07
